Converted amounts (≈) assume the structure as drawn. Non-standard residues stand in square brackets, D forms with d. Residues, ends and D or L forms follow the SMILES beside them. N(1-naphthylmethyl)Gly = O=C(O)CNCc1cccc2ccccc12; d1Nal = N[C@H](Cc1cccc2ccccc12)C(=O)O; N(4-MeBn)Gly = Cc1ccc(CNCC(=O)O)cc1; dNle = CCCC[C@@H](N)C(=O)O; NBuGly = CCCCNCC(=O)O; Nlys = NCCCCNCC(=O)O
Columns and labels:
[1] = test system: Staphylococcus aureus (ATCC 29213); type: cell-based; details: ATCC 29213, 18 h
[2] = test system: other selected dog pathogens; test: MIC against other selected dog pathogens; type: cell-based; details: summary of Table 4, except for P. mirabilis
From the text: We screened the antimicrobial activity of D2 and the analogue D2D against a number of canine pathogens (Table 4). These included Acinetobacter baumannii, Escherichia coli, Enterococcus faecalis, and Klebsiella pneumoniae isolated from wounds, Corynebacterium auriscanis associated with canine otitis externa, the nosocomial pathogen Enterococcus faecium, the endocartitis-causing Streptococcus canis, and Proteus mirabilis
(§1) To explore the antimicrobial activity of the library of peptides and peptidomimetics, they were tested against Acinetobacter baumannii, Corynebacterium auriscanis, Escherichia coli, Enterococcus faecalis, Enterococcus faecium, Klebsiella pneumonia, Proteus mirabilis, and Pseudomonas aeruginosa. Bacteria grown on agar plates for 18 h at 37 °C were diluted to ~1 × 10^8 CFU/mL in Mueller–Hinton broth (MHB). Two-fold serial dilutions of peptides and peptidomimetics in MHB II were inoculated with bacteria to achieve a final concentration of 5 × 10^5 CFU/mL in polypropylene 96 U-well microtiter plates (Almeco, Esbjerg, Denmark), followed by incubation at 37 °C in ambient air for 18 h. The MIC values were determined as the lowest concentration showing no visible bacterial growth. Experiments were performed twice (in technical triplicates) on two different days.

MRSP ST71 strain E104 = test: Growth curve analysis (BioScreen); type: cell-based, Staphylococcus pseudintermedius; details: at the MIC, MRSP E104, OD600, 6 h, 37 °C
Procedure: First, we performed growth curve analysis using the well-characterized MRSP ST71 strain E104, which is resistant to a number of antibiotics. […] A well-characterized antimicrobial peptide, nisin, was used as control. […] Increased concentrations of nisin inhibited proportionally the growth of E104, both at sub-MIC and MIC concentrations.
The effect of D2 or analogues or nisin on the growth of MRSP strain E104 was evaluated using BioScreen (Oy Growth Curves Ab LTd, Helsinki, Finland). Freshly grown culture of E104 was diluted to OD 0.2 at 600 nm, supplemented with increased concentration of antimicrobials and distributed in a 100 well honeycomb micro-plate with volume 100 μL. The plate was incubated for 6 h at 37 °C with continuous shaking. The OD600 of each micro-culture was measured and recorded every 15 min after a 5 s pause of shaking in automatic mode. Recorded OD was plotted against time to prepare the growth curves. Experiment was performed twice and one representative result was presented.

[3] = test system: P. aeruginosa isolates from canine infections; type: cell-based, Pseudomonas aeruginosa
Procedure: as §1

[4] = test system: membrane proton motive force of E104 cells; test: DiSC3(5) fluorescence, membrane depolarization; type: cell-based, Staphylococcus pseudintermedius; details: 0.5× MIC, n = 2
From the text: In this study, the DiSC3(5) probe was used to assess the effect of D2 and its structural analogues D2L, D2D, and D2R on cytoplasmic membrane depolarization. DiSC3(5) is a cationic carbocyanine dye, which accumulates on negatively charged membrane, translocates into lipid membrane with a distribution dependent on plasma and mitochondrial membrane potential. Altered emission profile of DiSC3(5) measured via fluorescence spectroscopy indicates membrane depolarization caused by proton motive force dissipation, ATP production and/or pore formation. The increment of DiSC3(5) fluorescence of labeled cells resulting from its leakage upon addition of antimicrobial agents is usually measured over time. The protonophore carbonyl cyanide metachlorophenyl hydrazone (CCCP) is used as positive control, which rapidly dissipates PMF increasing proton permeability, alters both membrane proton gradient and transmembrane electric potential and decreases cellular ATP content. Based on the MIC and growth analysis results, sub-lethal concentrations of D2 and selected analogues were chosen to perform DiSC3(5) fluorescence and macromolecule biosynthesis studies.
Freshly grown E104 cells with OD 0.2 at 600 nm were labeled with 1 µM 3,3-dipropylthiadicarbocyanine iodide [DiSC3(5)] (Sigma-Aldrich, Søborg, Denmark) in MHB. The fluorescence spectra of fluorophore-labeled cells were plotted using the LS-50B luminescence spectrometer (PerkinElmer, Waltham, MA, USA) at excitation/emission wavelengths 546 nm/573 nm using time drive application of FLWINLAB software. After reading initial stable emission spectra of DiSC3(5), labeled cells were exposed with D2 or analogues or nisin or protonophore CCCP by directly injecting the concentrated solution of agent to the cuvette, and the change of fluorescence over time was recorded until emission spectra reached to stability. The increment of DiSC3(5) fluorescence upon addition of antimicrobials or CCCP (FUafter-exposure – FUbefore-exposure) was calculated and plotted in addition to raw fluorescence spectra. Experiment was performed twice and average fluorescence change was plotted with standard deviation.

[5] = cited from earlier work
From the text: We have previously described a promising antimicrobial peptoid, D2, which is active against MRSP and P. aeruginosa, resistant to plasma proteases and hepatic clearance in vitro, and is suitable for topical administration to treat superficial pyoderma. In the present study, we investigated the structural features responsible for antimicrobial activity of D2 by (a) performing Gly-scan to analyze the residues crucial for activity; (b) investigating the effects of single substitution in order to increase activity; (c) exploring the effect of the peptoid backbone by exchanging L- and D- amin ...

[6] = test system: S. pseudintermedius isolates from canine infections; type: cell-based, Staphylococcus pseudintermedius; details: 50 isolates from canine infections

Compound | MIC SA [1] | MIC range against other selected dog pathogens [2] | growth curve, change of cell optical density over time (MRSP ST71 strain E104) | MICs against canine P. aeruginosa isolates ([3]; isolates from canine infections, 18 h) | effect on PMF (membrane depolarization, DiSC3(5) fluorescence) [4] | resistance to hepatic clearance [5] | resistance to plasma proteases [5] | MIC range, panel of 50 P. aeruginosa isolates ([3]; 50 isolates from canine infections) | MIC range, panel of 50 S. pseudintermedius isolates [6]
CCCC[C@@H](NC(=O)[C@@H](CCCCN)NC(=O)[C@@H](Cc1cccc2ccccc12)NC(=O)[C@@H](CCCCN)NC(=O)[C@@H](Cc1ccccc1)NC(=O)[C@@H](Cc1cccc2ccccc12)NC(=O)[C@@H](CCCCN)NC(=O)[C@H](N)CCCCN)C(N)=O [D2D] (H-[dK][dK][d1Nal][dF][dK][d1Nal][dK][dNle]-NH2) | 4 µg/mL (≈ 3.38 µM) | 2 to 16 µg/mL | cell lysis | 4 µg/mL | lowest activity on PMF |  |  |  | 
CCCCN(CC(N)=O)C(=O)CN(CCCCN)C(=O)CN(Cc1cccc2ccccc12)C(=O)CN(CCCCN)C(=O)CN(Cc1ccc(C)cc1)C(=O)CN(Cc1cccc2ccccc12)C(=O)CN(CCCCN)C(=O)CNCCCCN [D2] (H-[Nlys][Nlys][N(1-naphthylmethyl)Gly][N(4-MeBn)Gly][Nlys][N(1-naphthylmethyl)Gly][Nlys][NBuGly]-NH2) | 8 µg/mL (≈ 6.67 µM) |  | cell lysis |  |  | resistant | resistant | 3.12 to 12.5 µM | 1.56 to 3.12 µM
